Legend:
[1] = biological target: T1, Bombesin receptor subtype-3 (Homo sapiens, UniProt P32247); experiment: Binding affinity to human BRS3
T1 sequence (P32247 whole entry): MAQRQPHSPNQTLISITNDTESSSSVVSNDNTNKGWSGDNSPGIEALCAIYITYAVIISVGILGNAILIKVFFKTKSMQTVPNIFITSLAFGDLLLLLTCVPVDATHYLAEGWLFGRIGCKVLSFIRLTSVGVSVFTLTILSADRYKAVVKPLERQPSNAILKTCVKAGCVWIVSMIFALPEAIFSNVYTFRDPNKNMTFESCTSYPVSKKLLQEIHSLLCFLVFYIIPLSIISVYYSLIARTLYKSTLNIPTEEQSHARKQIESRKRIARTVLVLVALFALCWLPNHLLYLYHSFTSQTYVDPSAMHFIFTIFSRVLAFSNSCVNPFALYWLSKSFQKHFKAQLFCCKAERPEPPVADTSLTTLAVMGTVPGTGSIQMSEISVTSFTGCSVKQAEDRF

[2] = biological target: T1, Bombesin receptor subtype-3; experiment: Agonist activity at human BRS3; assay type: functional
[3] = biological target: T2, Bombesin receptor subtype-3 (Mus musculus) (UniProt O54798); experiment: Agonist activity at mouse BRS3 relative to [D-Tyr6,b-Ala11,Phe13,Nle14]-Bombesin; assay type: functional
T2 sequence (whole entry): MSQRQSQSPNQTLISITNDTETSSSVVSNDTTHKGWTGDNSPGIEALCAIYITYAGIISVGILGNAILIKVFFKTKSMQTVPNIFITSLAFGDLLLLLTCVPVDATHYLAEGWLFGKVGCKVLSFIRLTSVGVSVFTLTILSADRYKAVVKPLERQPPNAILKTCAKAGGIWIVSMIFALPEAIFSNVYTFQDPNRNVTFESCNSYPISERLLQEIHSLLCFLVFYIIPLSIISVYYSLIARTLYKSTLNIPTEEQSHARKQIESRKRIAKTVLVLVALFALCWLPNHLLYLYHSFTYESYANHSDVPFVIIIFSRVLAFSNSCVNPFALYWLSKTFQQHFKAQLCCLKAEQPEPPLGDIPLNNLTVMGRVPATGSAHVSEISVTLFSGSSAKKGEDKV

[4] = biological target: T3, Bombesin receptor subtype-3 (Mus musculus, UniProt O54798); experiment: Agonist activity at mouse BRS3; assay type: functional
T3 sequence (O54798 whole entry): T2 sequence (whole entry)

[5] = biological target: T4, Bombesin receptor subtype-3 (Homo sapiens) (UniProt P32247); experiment: Agonist activity at human BRS3 relative to [D-Tyr6,b-Ala11,Phe13,Nle14]-Bombesin; assay type: functional
T4 sequence (whole entry): T1 sequence (P32247 whole entry)

[6] = Drug level in rat brain at 2 mg/kg, iv after 1 hr; assay type: ADME, organism-based; set-up: dose 2 mg/kg, route intravenous; conditions: read-out: Drug uptake
[7] = Ratio of drug level in brain to plasma in rat at 2 mg/kg, iv after 1 hr; assay type: ADME, organism-based; set-up: dose 2 mg/kg, route intravenous
[8] = Total plasma concentration in rat at 2 mg/kg, iv after 1 hr; assay type: ADME, organism-based; set-up: dose 2 mg/kg, route intravenous
[9] = Ratio of drug level in brain to plasma in rat at 1 mg/kg, iv after 1 hr; assay type: ADME, organism-based; set-up: dose 1 mg/kg, route intravenous
[10] = Total plasma concentration in rat at 1 mg/kg, iv after 1 hr; assay type: ADME, organism-based; set-up: dose 1 mg/kg, route intravenous
[11] = Drug level in rat brain at 1 mg/kg, iv after 1 hr; assay type: ADME, organism-based; set-up: dose 1 mg/kg, route intravenous; conditions: read-out: Drug uptake
[12] = Oral bioavailability in rat; assay type: ADME, organism-based; conditions: in vivo

SMILES	IC50 [1] [nM]	EC50 [2] [nM]	Activity [3] [%]	EC50 [4] [nM]	Activity [5] [%]	also measured
CCC(C)(C)Cc1cnc(CCc2ccc(-c3ccccc3OCc3n[nH]c(=O)[nH]3)cc2)[nH]1	31	336				
CCC(C)(C)Cc1c[nH]c(CCc2ccc(-c3ccccc3OCc3nc(C(F)(F)F)n[nH]3)cc2)n1	127	129	122	12	89	
CCC(C)(C)Cc1c[nH]c(CCc2ccc(-c3ccccc3OCc3nnn[nH]3)cc2)n1		30	109	2.9	111	concentration at 1 h [6]: 10 nM; Kp at 1 h [7]: 0.01; concentration at 1 h [8]: 1250 nM
CCC(C)(C)Cc1c[nH]c(CCc2ccc(-c3ccccc3OCc3nc(=S)[nH][nH]3)cc2)n1	6.1	41	120	5.8	114	Kp at 1 h [9]: 0.006; concentration at 1 h [10]: 4960 nM; concentration at 1 h [11]: 30 nM
CCC(C)(C)Cc1c[nH]c(CCc2ccc3c(c2)CNC(=O)c2ccccc2-3)n1			118		98	
CCC(C)(C)Cc1c[nH]c(CCc2ccc(-c3ccccc3OCc3nc(N)n[nH]3)cc2)n1	27	78	115	4.6	98	Kp at 1 h [9]: 0.016; concentration at 1 h [10]: 860 nM; concentration at 1 h [11]: 10 nM
CCC(C)(C)Cc1c[nH]c(CCc2ccc(-c3ccccc3OCC(=O)O)cc2)n1					97	
CCC(C)(C)Cc1c[nH]c(CCc2ccc(N3CCCC[C@@H]3c3nnn[nH]3)cc2)n1	6.2	15	119	16	100	bioavailability [12]: 4.9%
CCC(C)(C)Cc1c[nH]c(CCc2ccc3c(c2)CN(C)C(=O)c2ccccc2-3)n1			119		96	
CCC(C)(C)Cc1cnc(CCc2ccc3c(c2)CNC(=O)c2ccccc2-3)[nH]1	10	29		11		Kp at 1 h [9]: 0.068; concentration at 1 h [10]: 310 nM; concentration at 1 h [11]: 20 nM
CCC(C)(C)Cc1cnc(CCc2ccc(N3CCCC[C@@H]3c3nnc[nH]3)cc2)[nH]1	26	42		13		bioavailability [12]: 4.8%
c1ccc(-c2nnn[nH]2)c(-c2ccc(CCc3nc(CC4CCCC4)c[nH]3)cc2)c1			85		112	
CCC(C)(C)Cc1cnc(CCc2ccc(-c3ccccc3OCc3cnn[nH]3)cc2)[nH]1	83	399				
CCC(C)(C)Cc1cnc(CCc2ccc3c(c2)CN(C)C(=O)c2ccccc2-3)[nH]1	20	56		27		
CCC(C)(C)Cc1c[nH]c(CCc2ccc(-c3ccccc3OCc3cnn[nH]3)cc2)n1					97	
CCC(C)(C)Cc1c[nH]c(CCc2ccc(N3CCCc4cn[nH]c43)cc2)n1		42	120	13	101	bioavailability [12]: 29%
CCC(C)(C)Cc1cnc(CCc2ccc(-c3ccccc3OCC(=O)O)cc2)[nH]1	103	54				
c1ccc(-c2nnn[nH]2)c(-c2ccc(CCc3ncc(CC4CCCC4)[nH]3)cc2)c1	15	56		16		
CCC(C)(C)Cc1c[nH]c(CCc2ccc(N3CCCC[C@@H]3C(=O)O)cc2)n1	5.3	24	111	12	100	Kp at 1 h [9]: 0.04; concentration at 1 h [10]: 210 nM; concentration at 1 h [11]: 10 nM
CCC(C)(C)Cc1c[nH]c(CCc2ccc(-c3ccccc3OCc3nnc[nH]3)cc2)n1	22	172				
CCC(C)(C)Cc1c[nH]c(CCc2ccc(-c3ccccc3OCc3ncn[nH]3)cc2)n1					113	
CCC(C)(C)Cc1c[nH]c(CCc2ccc(-c3ccccc3O)cc2)n1	31	133	113	34	97	
O=C1NC(=O)C(c2ccccc2-c2ccc(CCC3N=CC(CC4CCCC4)=N3)cc2)S1 (stereo unspecified)	287	1770			94	
CCC(C)(C)Cc1c[nH]c(CCc2ccc(N3CCCC[C@@H]3c3ncn[nH]3)cc2)n1			117		96	
CCC(C)(C)Cc1c[nH]c(CCc2ccc(-c3ccccc3OCc3nc(=O)[nH][nH]3)cc2)n1					107	

Source: ChEMBL document CHEMBL1157884, “Synthesis and SAR of heterocyclic carboxylic acid isosteres based on 2-biarylethylimidazole as bombesin receptor subtype-3 (BRS-3) agonists for the treatment of obesity” (Bioorg Med Chem Lett, 2010)
